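How tested: cells in 96-well plates exposed to compound for 48 hours at five concentrations. Here, GI50 denotes the concentration required for 50% inhibition of growth.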 The source made the active and inactive calls. Rule as the data show it: active = GI50 up to about 1.1 µM and inactive = higher.
Experiments:
Assay in all cases: growth of human tumour cells (NCI), 48 h
DMS-114 = system: DMS-114
ACHN = system: ACHN
K562 = system: K562
XF498 = system: XF498
COLO 205 = system: COLO 205
NCI-H460 = system: NCI-H460
SNB-19 = system: SNB-19
SN12C = system: SN12C
M14 = system: M14
SK-MEL-28 = system: SK-MEL-28
OVCAR-3 = system: OVCAR-3
SK-MEL-5 = system: SK-MEL-5
786-0 = system: 786-0
NCI-H23 = system: NCI-H23
MOLT-4 = system: MOLT-4
UO-31 = system: UO-31
U-251 = system: U-251
Malme-3M = system: Malme-3M
SW-620 = system: SW-620
CCRF-CEM = system: CCRF-CEM
OVCAR-5 = system: OVCAR-5
CAKI-1 = system: CAKI-1
UACC-62 = system: UACC-62
SNB-75 = system: SNB-75
HCC 2998 = system: HCC 2998
HCT-15 = system: HCT-15
HT-29 = system: HT-29
EKVX = system: EKVX
SK-OV-3 = system: SK-OV-3
IGROV-1 = system: IGROV-1
LXFL 529 = system: LXFL 529
HOP-62 = system: HOP-62
OVCAR-8 = system: OVCAR-8
M19-MEL = system: M19-MEL
RPMI-8226 = system: RPMI-8226
SK-MEL-2 = system: SK-MEL-2
SF-295 = system: SF-295
NCI-H522 = system: NCI-H522
OVCAR-4 = system: OVCAR-4
SNB-78 = system: SNB-78
KM-20L2 = system: KM-20L2
UACC-257 = system: UACC-257
DLD-1 = system: DLD-1
A498 = system: A498
SF-268 = system: SF-268
KM12 = system: KM12
A549 = system: A549
TK-10 = system: TK-10
DMS-273 = system: DMS-273
LOX IMVI = system: LOX IMVI
HCT-116 = system: HCT-116
NCI-H226 = system: NCI-H226
SR = system: SR
RXF 393 = system: RXF 393
HL-60 = system: HL-60
SF-539 = system: SF-539

COc1ccc(CC(=O)c2cc(OC)c(OC)cc2C)cc1OC
GI50 (DMS-114): 14.7 µM (inactive) | GI50 (ACHN): 29.4 µM (inactive) | GI50 (K562): 57.5 µM (inactive) | GI50 (XF498): 25.5 µM (inactive) | GI50 (COLO 205): > 100 µM (inactive) | GI50 (NCI-H460): > 100 µM (inactive) | GI50 (SNB-19): 68.4 µM (inactive) | GI50 (SN12C): 55.1 µM (inactive) | GI50 (M14): > 100 µM (inactive) | GI50 (SK-MEL-28): 81.3 µM (inactive) | GI50 (OVCAR-3): 77.6 µM (inactive) | GI50 (SK-MEL-5): 24.9 µM (inactive) | GI50 (786-0): > 100 µM (inactive) | GI50 (NCI-H23): 20.5 µM (inactive) | GI50 (MOLT-4): 44.8 µM (inactive) | GI50 (UO-31): 18.2 µM (inactive) | GI50 (U-251): > 100 µM (inactive) | GI50 (Malme-3M): > 100 µM (inactive) | GI50 (SW-620): > 100 µM (inactive) | GI50 (CCRF-CEM): > 100 µM (inactive) | GI50 (OVCAR-5): > 100 µM (inactive) | GI50 (CAKI-1): > 100 µM (inactive) | GI50 (UACC-62): 38 µM (inactive) | GI50 (SNB-75): > 100 µM (inactive) | GI50 (HCC 2998): > 100 µM (inactive) | GI50 (HCT-15): 46.5 µM | GI50 (HT-29): > 100 µM (inactive) | GI50 (EKVX): 63 µM (inactive) | GI50 (SK-OV-3): > 100 µM (inactive) | GI50 (IGROV-1): 14 µM (inactive) | GI50 (LXFL 529): 24.8 µM (inactive) | GI50 (HOP-62): > 100 µM (inactive) | GI50 (OVCAR-8): > 100 µM (inactive) | GI50 (M19-MEL): 37.6 µM (inactive) | GI50 (RPMI-8226): 65.3 µM (inactive) | GI50 (SK-MEL-2): > 100 µM (inactive) | GI50 (SF-295): 57.4 µM (inactive) | GI50 (NCI-H522): 38 µM (inactive) | GI50 (OVCAR-4): 29.3 µM (inactive) | GI50 (SNB-78): > 100 µM (inactive) | GI50 (KM-20L2): > 100 µM (inactive) | GI50 (UACC-257): 21.3 µM (inactive) | GI50 (DLD-1): > 100 µM (inactive) | GI50 (A498): > 100 µM (inactive) | GI50 (SF-268): 89.3 µM (inactive) | GI50 (KM12): > 100 µM (inactive) | GI50 (A549): 71.6 µM (inactive) | GI50 (TK-10): > 100 µM (inactive)

Cc1ccc(S(=O)(=O)c2ccc(NC(=O)SCCC(=O)O)cc2)cc1
GI50 (DMS-114): > 100 µM (inactive) | GI50 (ACHN): > 100 µM (inactive) | GI50 (K562): > 100 µM (inactive) | GI50 (COLO 205): > 100 µM (inactive) | GI50 (NCI-H460): > 100 µM (inactive) | GI50 (SNB-19): > 100 µM (inactive) | GI50 (DMS-273): > 100 µM (inactive) | GI50 (SN12C): > 100 µM (inactive) | GI50 (M14): > 100 µM (inactive) | GI50 (SK-MEL-28): > 100 µM (inactive) | GI50 (OVCAR-3): > 100 µM (inactive) | GI50 (786-0): > 100 µM (inactive) | GI50 (NCI-H23): > 100 µM (inactive) | GI50 (MOLT-4): > 100 µM (inactive) | GI50 (UO-31): > 100 µM (inactive) | GI50 (U-251): > 100 µM (inactive) | GI50 (LOX IMVI): > 100 µM (inactive) | GI50 (HCT-116): > 100 µM (inactive) | GI50 (NCI-H226): > 100 µM (inactive) | GI50 (SW-620): > 100 µM (inactive) | GI50 (CCRF-CEM): > 100 µM (inactive) | GI50 (OVCAR-5): > 100 µM (inactive) | GI50 (CAKI-1): > 100 µM (inactive) | GI50 (UACC-62): > 100 µM (inactive) | GI50 (SNB-75): 17.8 µM (inactive) | GI50 (HCC 2998): > 100 µM (inactive) | GI50 (HCT-15): > 100 µM | GI50 (HT-29): > 100 µM (inactive) | GI50 (EKVX): > 100 µM (inactive) | GI50 (IGROV-1): 5.14 µM (inactive) | GI50 (LXFL 529): > 100 µM (inactive) | GI50 (HOP-62): > 100 µM (inactive) | GI50 (OVCAR-8): > 100 µM (inactive) | GI50 (RPMI-8226): > 100 µM (inactive) | GI50 (SR): > 100 µM (inactive) | GI50 (SK-MEL-2): > 100 µM (inactive) | GI50 (SF-295): > 100 µM (inactive) | GI50 (RXF 393): > 100 µM (inactive) | GI50 (NCI-H522): > 100 µM (inactive) | GI50 (OVCAR-4): > 100 µM (inactive) | GI50 (SNB-78): > 100 µM (inactive) | GI50 (KM-20L2): > 100 µM (inactive) | GI50 (UACC-257): > 100 µM (inactive) | GI50 (DLD-1): > 100 µM (inactive) | GI50 (A498): > 100 µM (inactive) | GI50 (HL-60): > 100 µM (inactive) | GI50 (SF-268): > 100 µM (inactive) | GI50 (SF-539): > 100 µM (inactive) | GI50 (KM12): > 100 µM (inactive) | GI50 (A549): > 100 µM (inactive) | GI50 (TK-10): > 100 µM (inactive)

CN(C)CCNC(=O)c1ccccc1Nc1c(Cl)cccc1Cl
GI50 (ACHN): 8.75 µM (inactive) | GI50 (K562): 13.4 µM (inactive) | GI50 (XF498): 9.66 µM (inactive) | GI50 (COLO 205): 11.6 µM (inactive) | GI50 (SNB-19): 16.1 µM (inactive) | GI50 (DMS-273): 16.9 µM (inactive) | GI50 (SN12C): 15.1 µM (inactive) | GI50 (M14): 15.4 µM (inactive) | GI50 (SK-MEL-28): 14.8 µM (inactive) | GI50 (SK-MEL-5): 2.89 µM (inactive) | GI50 (786-0): 4.62 µM (inactive) | GI50 (NCI-H23): 17.1 µM (inactive) | GI50 (MOLT-4): 13.1 µM (inactive) | GI50 (UO-31): 4.52 µM (inactive) | GI50 (U-251): 11.6 µM (inactive) | GI50 (LOX IMVI): 12.8 µM (inactive) | GI50 (HCT-116): 7.93 µM (inactive) | GI50 (NCI-H226): 11.5 µM (inactive) | GI50 (SW-620): 14.1 µM (inactive) | GI50 (CCRF-CEM): 12.7 µM (inactive) | GI50 (OVCAR-5): 10.4 µM (inactive) | GI50 (UACC-62): 16.1 µM (inactive) | GI50 (SNB-75): 2.07 µM (inactive) | GI50 (HCC 2998): 10.6 µM (inactive) | GI50 (HCT-15): 14.8 µM | GI50 (HT-29): 6.75 µM (inactive) | GI50 (EKVX): 8.2 µM (inactive) | GI50 (SK-OV-3): 13.7 µM (inactive) | GI50 (IGROV-1): 18.2 µM (inactive) | GI50 (LXFL 529): 17.7 µM (inactive) | GI50 (HOP-62): 13.7 µM (inactive) | GI50 (OVCAR-8): 14.1 µM (inactive) | GI50 (M19-MEL): 11.1 µM (inactive) | GI50 (RPMI-8226): 11.9 µM (inactive) | GI50 (SR): 12.6 µM (inactive) | GI50 (RXF 393): 1.69 µM (inactive) | GI50 (OVCAR-4): 14.6 µM (inactive) | GI50 (SNB-78): 16.4 µM (inactive) | GI50 (KM-20L2): 10.9 µM (inactive) | GI50 (UACC-257): 5.75 µM (inactive) | GI50 (DLD-1): 18.2 µM (inactive) | GI50 (HL-60): 11 µM (inactive) | GI50 (SF-268): 16.2 µM (inactive) | GI50 (SF-539): 13.1 µM (inactive) | GI50 (A549): 10.9 µM (inactive) | GI50 (TK-10): 8.13 µM (inactive)
